Earlier results, collected in PMC4258517 (Antiviral research, 2014).
pIC50: −log10 of the molar value.

Legend:
[1] = tested on: SV40; conditions: 100 μM; ref Wright et al., 2009
[2] = tested on: BKV; conditions: HK2 cells, 15 μM; ref Wright et al., 2009
[3] = tested on: patients with PML; conditions: trial prematurely terminated, ref Clifford et al., 2013
[4] = tested on: SV40 large T antigen ATPase; conditions: ref Seguin et al., 2012b
[5] = read-out: MTS assay IC50; cytotoxicity; ref Seguin et al., 2012b

| Compound | reduction in SV40 DNA replication [1] | reduction of BKV viral load [2] | clinical trial outcome [3] | mechanism of inhibition on SV40 protein [4] | pIC50 [5] |
| --- | --- | --- | --- | --- | --- |
| CC1=C(C(=O)OCc2ccccc2)C(c2ccc(-c3ccccc3)cc2)NC(=O)N1CCCCCC(=O)O (stereo not shown) [MAL2-11B] | fivefold reduction | one log reduction | – | – | – |
| OC(c1cc(C(F)(F)F)nc2c(C(F)(F)F)cccc12)C1CCCCN1 (stereo not shown) [Mefloquine] | – | – | lack of efficacy | – | – |
| Oc1c(Cl)cc(Cl)cc1Sc1cc(Cl)cc(Cl)c1O [bithionol] | – | – | – | competitive | 4.17 |
| Oc1c(Cl)cc(Cl)c(Cl)c1Cc1c(O)c(Cl)cc(Cl)c1Cl [hexachlorophene] | – | – | – | competitive | 4.26 |
